This passage reports viability results from patent publication US8470765B2, “Polypeptides and antibacterial or antiseptic use of same” (AnGes MG, Inc., priority 2009, dated 2013).

The experiment has as its system Pseudomonas aeruginosa (P. aeruginosa ATCC27853). The experiment can be described thus: ATP assay (BacTiter-Glo) viability, Table 2. It counts as cell-based. Particulars: ATCC27853, 3 h, read-out: Viability (%) P. aeruginosa. As for the experimental part: The antibacterial activity of the polypeptides was measured using the ATP assay method.
Using BacTiter-Glo Microbial Cell Viability Assay kit available from PROMEGA, the antibacterial activity of the peptides was evaluated from the viability of bacteria. That is, ATP amount in viable bacteria in cases where the concentration of the peptides was 10 μg/ml, was measured using a microtiter plate or test tubes.
With respect to the strains, Staphylococcus aureus (S. aureus ATCC29213) as Gram-positive bacteria, or, alternatively, Pseudomonas aeruginosa (P. aeruginosa ATCC27853) as Gram-negative bacteria, was used. The bacteria were cultured in media for 3 to 4 hours, and thereafter absorbances at A600 were measured. Bacterial suspensions were diluted with Mueller-Hinton broth (MHB) according to McFarland #0.5. Each strain was added so as to attain about 0.5-1×10^5 CFU/mL (final concentration) in terms of Escherichia coli. Each peptide was prepared and added to a microplate or test tubes so as to attain a final concentration of […], and the bacterial suspension was added thereto. […] The plate was incubated at 37° C. for 3 hours, and the amount of ATP in the culture media was measured. Relative values were calculated by comparison with the negative control, and these values were regarded as the viability.

Turning to `NC[C@H]1O[C@H](O[C@H]2[C@H](O)[C@@H](O[C@H]3O[C@H](CO)[C@@H](O)[C@H](N)[C@H]3O)[C@H](N)C[C@@H]2N)[C@H](N)C[C@@H]1O` [tobramycin, reference compound], the viability at 1 µg/mL turned out to be 1.8%.
